Experimental data taken from patent EP4778922A1, “BICYCLIC COMPOUND, AND PREPARATION METHOD THEREFOR AND PHARMACEUTICAL USE THEREOF” (Shanghai Jeyou Pharmaceutical Co., Ltd., priority 2023, dated 2025).

Assays:
[1] = test system: LNCaP cells; test: Cell proliferation inhibition assay in LNCaP cells (0.2 nM DHT, CellTiter-Glo, 7 days); assay type: cell-based, human; conditions: Homo sapiens, 168 h
Procedure: • 1. The human prostate cancer cell lines 22RV1 and LNCaP were purchased from ATCC. […] The cell concentration was adjusted to an appropriate concentration (determined based on the results of cell density optimization experiments), and the cells were seeded into a 96-well plate. A 100 µL cell suspension was added, resulting in 3000 cells per well. […] On the second day, for 22Rv1 cells, test compounds at different concentrations were added, and the cells were incubated at 37°C in a 5% CO2 incubator for 7 days; for LNCaP cells, test compounds at different concentrations were added first, and after 1 hour of treatment, 0.2 nM DHT was added. The cells were then incubated at 37°C in a 5% CO2 incubator for 7 days. • 4. After the incubation period, a volume of CellTiter-Glo detection reagent equal to the volume of the culture medium was added to each well. The plate was shaken and mixed thoroughly for 5 minutes, then incubated at room temperature for 10 minutes. Readings were taken using a PerkinElmer EnVision microplate reader. • 5.
The IC50 curve was fitted and the IC50 value was calculated using the software GraphPad Prism 8 with the calculation formula XY-analysis/Nonlinear regression (curve fit)/Dose response-Inhibition/log (inhibitor) vs. response-Variable slope (four parameters).

[2] = test system: 22RV1 cells; test: Cell proliferation inhibition assay in 22RV1 cells (CellTiter-Glo, 7 days); assay type: cell-based, human; conditions: Homo sapiens
How it was run: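 22RV1 cells received compound alone; LNCaP cells were stimulated with 0.2 nM DHT added 1 h after compound. Seeding was 3000 cells/well.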

| SMILES | IC50 [1] [nM] | IC50 ([2]; 168 h) [nM] | IC50 ([1]; LNCaP) [nM] | IC50 ([2]; 22Rv1, 168 h) [nM] |
| --- | --- | --- | --- | --- |
| CC(C)(c1ccc(-c2cnc(OCc3ccnc(N4CC5(CCS5(=N)=O)C4)n3)cn2)cc1)c1cc(Cl)c(OCCCl)c(C#N)c1 (racemic) [Compound 375] | 59 | 120 | – | – |
| CC(C)(c1ccc(-c2ccc(OCc3ccnc(N=S4(=O)CCNCC4)n3)cc2)cc1)c1cc(Cl)c(OCCCl)c(C#N)c1 [Compound 108] | 300 | 60 | – | – |
| CC(C)(c1ccc(-c2ccc(OCc3ccnc(N=S4(=O)CCN(CCO)CC4)n3)cc2)cc1)c1cc(Cl)c(OCCCl)c(C#N)c1 [Compound 164] | 480 | 45 | – | – |
| CC(C)(c1ccc(-c2ccc(OCc3ccnc(N=S4(=O)CCN(CC(F)F)CC4)n3)cn2)cc1)c1cc(Cl)c(OCCCl)c(C#N)c1 [Compound 179] | 530 | 410 | – | – |
| CC(C)(c1ccc(-c2ccc(OCc3ccnc(N4CC(N=S(C)(C)=O)C4)n3)cc2)cc1)c1cc(Cl)c(OCCCl)c(C#N)c1 [Compound 195] | 460 | 38 | – | – |
| CC(C)(c1ccc(-c2ccc(OCCOc3nccc(N4CC5(COC5)C4)n3)cc2)cc1)c1cc(Cl)c(OCCCl)c(C#N)c1 [Compound 203] | – | – | 440 | 47 |
| CC(C)(c1ccc(-c2ccc(OCc3ccnc(N4CC5(COC5)C4)n3)nc2)cc1)c1cc(Cl)c(OCCCl)c(C#N)c1 [Compound 209] | 420 | 290 | – | – |
| CC(C)(O)CN1CCS(=O)(=Nc2nccc(COc3ccc(-c4ccc(C(C)(C)c5cc(Cl)c(OCCCl)c(C#N)c5)cc4)cc3)n2)CC1 [Compound 254] | 440 | 160 | – | – |
| CC(C)(c1ccc(-c2ccc(OCC3CCC4(CC3)CN(c3ccnc(P(C)(C)=O)n3)C4)cc2)cc1)c1cc(Cl)c(OCCCl)c(C#N)c1 [Compound 260] | 620 | 170 | – | – |
| CC(C)(c1ccc(-c2ccc(OCc3ccnc(N=S4(=O)CCN(CC(F)F)CC4)n3)nc2)cc1)c1cc(Cl)c(OCCCl)c(C#N)c1 [Compound 264] | 980 | 250 | – | – |
| CC(C)(c1ccc(-c2ccc(OCc3ccnc(N=S4(=O)CCC(F)(F)CC4)n3)cc2)cc1)c1cc(Cl)c(OCCCl)c(C#N)c1 [Compound 288] | 550 | 74 | – | – |
| CC(C)(c1ccc(-c2ccc(OCCN3CCS(=O)(=O)CC3)cc2)cc1)c1cc(Cl)c(OCCCl)c(C#N)c1 [Compound 298] | 760 | 190 | – | – |
| CC(C)(c1ccc(-c2ccc(OCc3ccc(-c4cnc(N5CC6(C5)CS(=N)(=O)C6)nc4)cc3)cc2)cc1)c1cc(Cl)c(OCCCl)c(C#N)c1 [Compound 317] | 270 | 1040 | – | – |
| CC(C)(c1ccc(-c2cnc(OCC34CC(c5cnc(P(C)(C)=O)nc5)(C3)C4)cn2)cc1)c1cc(Cl)c(OCCCl)c(C#N)c1 [Compound 322] | 120 | 1050 | – | – |
| CC(C)(c1ccc(-c2ccc(OCC3CCC(CN4CC5(COC5)C4)CC3)cc2)cc1)c1cc(Cl)c(OCCCl)c(C#N)c1 (stereo not shown) [Compound 333] | 680 | 320 | – | – |
| CC(C)(c1ccc(-c2cnc(OCc3ccnc(N4CC(S(C)(=O)=O)C4)n3)nc2)cc1)c1cc(Cl)c(OCCCl)c(C#N)c1 [Compound 342] | 500 | 860 | – | – |
| CC(C)(c1ccc(-c2ccc(OCc3ccnc(N4CC(S(=N)(=O)C5CC5)C4)n3)nc2)cc1)c1cc(Cl)c(OCCCl)c(C#N)c1 (stereo not shown) [Compound 356] | 410 | 790 | – | – |
| CC(C)(c1ccc(-c2ccc(OCc3ccnc(N4CC(S(C)(=N)=O)C4)n3)nc2)cc1)c1cc(Cl)c(OCCCl)c(C#N)c1 (stereo not shown) [Compound 357] | – | – | 440 | 830 |
| CC(C)(c1ccc(-c2ccc(OCc3nccnc3P(C)(C)=O)cc2)cc1)c1cc(Cl)c(OCCCl)c(C#N)c1 [Compound 358] | 240 | 570 | – | – |
| CC(C)(c1ccc(-c2ccc(OCc3ccc(-c4ccc(P(C)(C)=O)nc4)cc3)cc2)cc1)c1cc(Cl)c(OCCCl)c(C#N)c1 [Compound 359] | 74 | 230 | – | – |
| CC(C)(c1ccc(-c2cnc(OCc3ccc(-c4cnc(P(C)(C)=O)nc4)cc3)cn2)cc1)c1cc(Cl)c(OCCCl)c(C#N)c1 [Compound 361] | 400 | 250 | – | – |
| CC1(CO)CN(c2nccc(COc3cnc(-c4ccc(C(C)(C)c5cc(Cl)c(OCCCl)c(C#N)c5)cc4)cn3)n2)C1 [Compound 365] | 550 | 930 | – | – |
| CC(C)(c1ccc(-c2cnc(OCc3ccc(-c4cnc(P(C)(C)=O)nc4)nc3)cn2)cc1)c1cc(Cl)c(OCCCl)c(C#N)c1 [Compound 373] | 250 | 640 | – | – |
| CC(C)(c1ccc(-c2cnc(OCc3ccnc(N4CC5(CCS(=N)(=O)CC5)C4)n3)cn2)cc1)c1cc(Cl)c(OCCCl)c(C#N)c1 [Compound 377] | 100 | 380 | – | – |

| SMILES | IC50 [1] [nM] | IC50 ([2]; 168 h) [nM] | IC50 ([1]; LNCaP) [nM] | IC50 ([2]; 22Rv1, 168 h) [nM] |
| --- | --- | --- | --- | --- |
| CC(C)(c1ccc(-c2ccc(OCc3ccc(-c4cnc(N5CC(S(C)(=O)=O)C5)nc4)cc3)c(C#N)c2)cc1)c1cc(Cl)c(OCCCl)c(C#N)c1 [Compound 382] | 410 | 860 | – | – |
| CC(C)(c1ccc(-c2cnc(COc3ccnc(P(C)(C)=O)n3)nc2)cc1)c1cc(Cl)c(OCCCl)c(C#N)c1 [Compound 385] | 220 | 570 | – | – |
| CC(C)(c1ccc(-c2cnc(OCc3ccnc(N4CC(N=S(C)(C)=O)C4)n3)cn2)cc1)c1cc(Cl)c(OCCCl)c(C#N)c1 [Compound 388] | 530 | 370 | – | – |
| CC(C)(c1ccc(-c2ccc(OCc3ccc(-c4ccc(P(C)(C)=O)nn4)cc3)cc2)cc1)c1cc(Cl)c(OCCCl)c(C#N)c1 [Compound 394] | 76 | 110 | – | – |
| CC(C)(c1ccc(-c2ccc(OCc3ccc(-c4cnc(P(C)(C)=O)nc4)cn3)nc2)cc1)c1cc(Cl)c(OCCCl)c(C#N)c1 [Compound 397] | 110 | 950 | – | – |
| CC(C)(c1ccc(-c2ccc(OCc3ccc(-c4cnc(P(C)(C)=O)nc4)nc3)nc2)cc1)c1cc(Cl)c(OCCCl)c(C#N)c1 [Compound 398] | 120 | 510 | – | – |
| CC(C)(c1ccc(-c2cnc(OCc3cnc(-c4cnc(P(C)(C)=O)nc4)cn3)nc2)cc1)c1cc(Cl)c(OCCCl)c(C#N)c1 [Compound 402] | 99 | 660 | – | – |
| CC(C)(c1ccc(-c2ccc(OCc3cnc(-c4cnc(P(C)(C)=O)nc4)cn3)nc2)cc1)c1cc(Cl)c(OCCCl)c(C#N)c1 [Compound 410] | 27000 | 880 | – | – |
| CN=S(C)(=O)C1CN(c2nccc(COc3ccc(-c4ccc(C(C)(C)c5cc(Cl)c(OCCCl)c(C#N)c5)cc4)nc3)n2)C1 (stereo not shown) [Compound 414] | 360 | 940 | – | – |
| CC(C)(c1ccc(-c2ccc(OCc3ccc(-c4cnc(P(C)(C)=O)cn4)cc3)cc2)cc1)c1cc(Cl)c(OCCCl)c(C#N)c1 [Compound 419] | 130 | 130 | – | – |
| CC(C)(c1ccc(-c2cnc(OCC34CC(c5cnc(P(C)(C)=O)nc5)(C3)C4)nc2)cc1)c1cc(Cl)c(OCCCl)c(C#N)c1 [Compound 421] | 600 | 350 | – | – |
| CC(C)(c1ccc(-c2ccc(OCc3ccnc(N4CC5(C4)CS(=N)(=O)C5)n3)cn2)cc1)c1cc(Cl)c(OCCCl)c(C#N)c1 [Compound 422] | 530 | 690 | – | – |
| CC(C)(c1ccc(-c2ncc(OCc3ccc(-c4cnc(P(C)(C)=O)cn4)cc3)cn2)cc1)c1cc(Cl)c(OCCCl)c(C#N)c1 [Compound 424] | 310 | 660 | – | – |
| CC(C)(c1ccc(-c2ccc3c(c2)C(=O)N(Cc2ccnc(P(C)(C)=O)n2)C3)cc1)c1cc(Cl)c(OCCCl)c(C#N)c1 [Compound 439] | 470 | – | – | – |
| CC(=O)c1nccc(COc2cnc(-c3ccc(C(C)(C)c4cc(Cl)c(OCCCl)c(C#N)c4)cc3)cn2)n1 [Compound 441] | 950 | – | – | – |
| CC(C)(c1ccc(-c2ncc(OCc3ccc(-c4ccc(P(C)(C)=O)nn4)cc3)cn2)cc1)c1cc(Cl)c(OCCCl)c(C#N)c1 [Compound 455] | 160 | – | – | – |
| CC(C)(c1ccc(N2CCCc3cc(OCc4ccnc(P(C)(C)=O)n4)ccc32)cc1)c1cc(Cl)c(OCCCl)c(C#N)c1 [Compound 457] | 970 | – | – | – |
| CC(C)(c1ccc(-c2ccc(OCc3ccnc(P(C)(C)=O)n3)cc2)nc1)c1cc(Cl)c(OCCCl)c(C#N)c1 [Compound 459] | – | – | 990 | – |
| CC(C)(c1ccc(-c2ccc(OCc3ccnc(N4CC(S(C)(=O)=O)C4)n3)cc2)nc1)c1cc(Cl)c(OCCCl)c(C#N)c1 [Compound 460] | 450 | – | – | – |
| CC(C)(c1ccc(-c2ccc(OCc3ccnc(N4CC(S(C)(=N)=O)C4)n3)cc2)nc1)c1cc(Cl)c(OCCCl)c(C#N)c1 (stereo not shown) [Compound 461] | 580 | – | – | – |
| CC(C)(c1cc(Cl)c(OCCCl)c(C#N)c1)c1ccc(-c2ccc(OCc3ccnc(P(C)(C)=O)n3)cc2)cn1 [Compound 474] | 680 | – | – | – |
| CC(C)(c1cc(Cl)c(OCCCl)c(C#N)c1)c1ccc(-c2ccc(OCc3ccnc(N4CC(S(C)(=N)=O)C4)n3)cn2)cn1 (stereo not shown) [Compound 475] | 700 | – | – | – |
| CC(C)(c1cc(Cl)c(OCCCl)c(C#N)c1)c1ccc(-c2ccc(OCc3ccnc(N4CC(S(C)(=O)=O)C4)n3)nc2)cn1 [Compound 478] | 780 | – | – | – |
| CC(C)(c1cc(Cl)c(OCCCl)c(C#N)c1)c1ccc(-c2ccc(OCc3ccnc(N4CC(S(C)(=N)=O)C4)n3)nc2)cn1 (stereo not shown) [Compound 479] | 700 | – | – | – |
